This note sets out measurements from US11254686B1 (Corvus Pharmaceuticals, Inc., priority 2017, dated 2022).

For one series, the target named is adenosine A2A receptor (Homo sapiens (Human), UniProt P29274). Description: Adenosine receptor activity assay (Table 1), A2A activity. In kind it is biochemical. Conditions: read-out: Ave A2A cAMP IC50.
For the next series, the target named is adenosine A3 receptor (Homo sapiens (Human), UniProt P0DMS8). The series can be described thus: A3 cAMP IC50 assay (Table 1). In kind it is biochemical.
Chain of adenosine A3 receptor (P0DMS8 whole entry): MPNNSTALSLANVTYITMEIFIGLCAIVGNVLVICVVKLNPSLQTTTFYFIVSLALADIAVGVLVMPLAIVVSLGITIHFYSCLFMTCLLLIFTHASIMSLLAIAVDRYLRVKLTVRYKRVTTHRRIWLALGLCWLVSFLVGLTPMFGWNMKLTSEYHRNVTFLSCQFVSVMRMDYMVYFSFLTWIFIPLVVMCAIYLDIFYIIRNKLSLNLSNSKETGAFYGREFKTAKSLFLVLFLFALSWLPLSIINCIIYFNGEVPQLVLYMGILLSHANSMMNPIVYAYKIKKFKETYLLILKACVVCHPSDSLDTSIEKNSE
For another series, the target named is adenosine A1 receptor (Homo sapiens (Human), UniProt P30542). Description: A1 cAMP IC50 assay (Table 1). It is filed as biochemical.
Chain of adenosine A1 receptor (P30542 whole entry): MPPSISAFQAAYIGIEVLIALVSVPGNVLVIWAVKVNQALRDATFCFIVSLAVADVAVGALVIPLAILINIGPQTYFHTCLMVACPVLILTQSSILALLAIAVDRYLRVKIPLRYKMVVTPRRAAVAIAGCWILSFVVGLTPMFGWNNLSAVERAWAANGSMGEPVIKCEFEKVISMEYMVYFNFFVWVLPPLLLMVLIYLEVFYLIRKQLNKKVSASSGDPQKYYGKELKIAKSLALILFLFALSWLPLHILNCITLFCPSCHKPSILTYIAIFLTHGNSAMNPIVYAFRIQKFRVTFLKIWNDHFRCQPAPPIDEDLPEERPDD
For a further series, the target named is adenosine A2B receptor (Homo sapiens (Human), UniProt P29275). Description: Adenosine receptor activity assay (Table 1), A2B activity. In kind it is biochemical. Conditions: for Ratio: A2A activity to A2B activity (A2A/A2B); for IC50: read-out: Ave A2B cAMP IC50.
Chain of adenosine A2B receptor (P29275 whole entry): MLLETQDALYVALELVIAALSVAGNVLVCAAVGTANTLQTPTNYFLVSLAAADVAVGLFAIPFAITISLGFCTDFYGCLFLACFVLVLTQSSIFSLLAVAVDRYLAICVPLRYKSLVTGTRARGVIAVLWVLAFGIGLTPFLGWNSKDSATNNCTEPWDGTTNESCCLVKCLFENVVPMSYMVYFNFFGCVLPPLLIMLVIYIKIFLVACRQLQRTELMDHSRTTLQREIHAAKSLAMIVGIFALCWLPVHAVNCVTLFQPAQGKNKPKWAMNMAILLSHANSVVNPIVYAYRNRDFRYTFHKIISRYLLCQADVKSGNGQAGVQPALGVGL
The nature of series [1]: Hepatocyte (Hep) intrinsic clearance, rat. It is filed as in vitro ADME. Particulars: hepatocytes.
The next series deals with CYP3A4 (Homo sapiens (Human), UniProt P08684). Description: CYP450 inhibition at 10 μM, CYP3A4. In kind it is in vitro ADME. Particulars: human, 10 μM, read-out: CYP 450 % INH @ 10 μM.
Chain of CYP3A4 (P08684 whole entry): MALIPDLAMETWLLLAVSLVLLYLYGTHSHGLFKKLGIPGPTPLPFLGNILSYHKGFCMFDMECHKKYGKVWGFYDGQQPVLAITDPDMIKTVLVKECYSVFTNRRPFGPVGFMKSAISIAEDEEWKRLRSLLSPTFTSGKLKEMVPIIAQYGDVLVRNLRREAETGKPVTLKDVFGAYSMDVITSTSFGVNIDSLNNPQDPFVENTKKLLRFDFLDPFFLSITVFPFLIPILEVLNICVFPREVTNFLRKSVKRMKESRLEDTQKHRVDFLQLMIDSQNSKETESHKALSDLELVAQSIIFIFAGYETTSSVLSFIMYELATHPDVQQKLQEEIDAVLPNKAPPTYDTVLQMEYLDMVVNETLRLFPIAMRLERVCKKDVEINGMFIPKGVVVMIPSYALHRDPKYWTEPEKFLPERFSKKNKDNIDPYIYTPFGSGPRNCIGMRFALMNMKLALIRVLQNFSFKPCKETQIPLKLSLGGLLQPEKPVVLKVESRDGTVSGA
Series [2] is described as follows: Hepatocyte (Hep) intrinsic clearance, human. In kind it is in vitro ADME. Particulars: hepatocytes.

Where only a bound is given, the exact number is not on record here.

Chain of adenosine A2A receptor (P29274 whole entry): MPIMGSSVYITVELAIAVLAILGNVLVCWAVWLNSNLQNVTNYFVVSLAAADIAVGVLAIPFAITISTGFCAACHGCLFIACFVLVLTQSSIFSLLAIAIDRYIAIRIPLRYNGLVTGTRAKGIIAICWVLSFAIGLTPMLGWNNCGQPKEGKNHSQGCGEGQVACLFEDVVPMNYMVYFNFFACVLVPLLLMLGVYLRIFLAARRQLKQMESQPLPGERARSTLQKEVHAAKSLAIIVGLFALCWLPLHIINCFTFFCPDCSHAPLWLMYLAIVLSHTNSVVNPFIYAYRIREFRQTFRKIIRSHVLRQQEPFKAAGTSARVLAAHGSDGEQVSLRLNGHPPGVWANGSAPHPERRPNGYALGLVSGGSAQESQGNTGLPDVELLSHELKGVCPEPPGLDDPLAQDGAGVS

As usually defined, the IC50 is the midpoint of a concentration-inhibition curve. In general, hepatocyte CLint refers to the rate of metabolic loss divided by the concentration. On to `C[C@@H]1CCN(C(=O)c2nc(N[C@@H](C)c3ccccn3)nc3ccsc23)C1` [Example Z86, ((R)-3-Methylpyrrolidin-1-yl)(2-(((S)-1-(pyridin-2-yl)ethyl)amino)thieno[3,2-d]pyrimidin-4-yl)methanone], for which the IC50 on adenosine A2A receptor is 50 to 100 nM; against adenosine A3 receptor it was more than 500 nM; on adenosine A1 receptor it was more than 500 nM; at adenosine A2B receptor, 10 to 50 nM. Besides, the Ratio on adenosine A2B receptor is reported as 4.25. Besides, the intrinsic metabolic clearance (hepatocyte CLint) was determined as 55.1 µL/min/1e6 cells in series [1] and 11.8 µL/min/1e6 cells in series [2]. Also, the inhibition at 10 µM on CYP3A4 is 19%.

Turning to `C[C@H]1CCN(C(=O)c2nc(N[C@@H](C)c3ccccn3)nc3ccsc23)C1` [Example Z87, ((S)-3-Methylpyrrolidin-1-yl)(2-(((S)-1-(pyridin-2-yl)ethyl)amino)thieno[3,2-d]pyrimidin-4-yl)methanone], the IC50 on adenosine A2A receptor was 100 to 500 nM; on adenosine A3 receptor, more than 500 nM; at adenosine A1 receptor it was more than 500 nM; at adenosine A2B receptor, 10 to 50 nM. Also, the Ratio on adenosine A2B receptor is 11.70. In addition, the hepatocyte CLint in series [1] amounted to 57.6 µL/min/1e6 cells; in series [2], 13.3 µL/min/1e6 cells. On CYP3A4, the inhibition at 10 µM came to 19.9%.

Take `C[C@H](Nc1nc(C(=O)N2CCC2)c2sccc2n1)c1ccccn1` [Example Z90, (S)-Azetidin-1-yl(2-((1-(pyridin-2-yl)ethyl)amino)thieno[3,2-d]pyrimidin-4-yl)methanone]: the 50% inhibitory concentration (IC50) was 50 to 100 nM at adenosine A2A receptor, more than 500 nM against adenosine A3 receptor, more than 500 nM against adenosine A1 receptor and less than 10 nM on adenosine A2B receptor. Further, the Ratio at adenosine A2B receptor amounted to 18.88. Further, the hepatocyte CLint amounted to 33.3 µL/min/1e6 cells in series [1] and 6.32 µL/min/1e6 cells in series [2]. Besides, the inhibition at 10 µM on CYP3A4 amounted to 0%.

As to `Cc1ncccc1CNc1nc(C(=O)N2CCCC2)c2sccc2n1` [Example Z91, (2-(((2-Methylpyridin-3-yl)methyl)amino)thieno[3,2-d]pyrimidin-4-yl)(pyrrolidin-1-yl)methanone], the concentration for half-maximal inhibition (IC50) on adenosine A2A receptor lay within 100 to 500 nM; on adenosine A2B receptor it was 10 to 50 nM. The Ratio at adenosine A2B receptor worked out at 16.69. For the same molecule, the intrinsic clearance (hepatocyte CLint) worked out at 47.1 µL/min/1e6 cells in series [1] and 7.19 µL/min/1e6 cells in series [2]. In addition, the inhibition at 10 µM on CYP3A4 came to 19%.

For the molecule `C[C@H](Nc1nc(C(=O)N2CC(F)(F)C2)c2sccc2n1)c1ccccn1` [Example Z92, (S)-(3,3-Difluoroazetidin-1-yl)(2-((1-(pyridin-2-yl)ethyl)amino)thieno[3,2-d]pyrimidin-4-yl)methanone], the concentration for half-maximal inhibition (IC50) is 100 to 500 nM at adenosine A2A receptor, more than 500 nM on adenosine A3 receptor, more than 500 nM on adenosine A1 receptor and 10 to 50 nM at adenosine A2B receptor. Further, the Ratio at adenosine A2B receptor was found to be 10.92. Besides, the figures for the hepatocyte CLint in series [1] and in series [2] were 46.5 µL/min/1e6 cells and 45.2 µL/min/1e6 cells, respectively. Besides, the inhibition at 10 µM at CYP3A4 amounted to 0%.

Turning to `C[C@H](Nc1nc(C(=O)N2CCC(F)(F)C2)c2sccc2n1)c1ccccn1` [Example Z96, (S)-(3,3-Difluoropyrrolidin-1-yl)(2-((1-(pyridin-2-yl)ethyl)amino)thieno[3,2-d]pyrimidin-4-yl)methanone], the IC50 on adenosine A2A receptor was 100 to 500 nM; on adenosine A3 receptor, more than 500 nM; against adenosine A1 receptor it was more than 500 nM; at adenosine A2B receptor, 10 to 50 nM. At adenosine A2B receptor, the Ratio was determined as 5.59. Besides, the values for the hepatocyte CLint in series [1] and in series [2] were 40.7 µL/min/1e6 cells and 16.8 µL/min/1e6 cells, respectively. Also, at CYP3A4, the inhibition at 10 µM came out at 0%.

As to `O=C(c1nc(NCc2cncc(F)c2)nc2ccsc12)N1CC(F)(F)C1` [Example Z97, (3,3-Difluoroazetidin-1-yl)(2-(((5-fluoropyridin-3-yl)methyl)amino)thieno[3,2-d]pyrimidin-4-yl)methanone], the IC50 at adenosine A2A receptor is more than 500 nM; against adenosine A3 receptor, more than 500 nM; on adenosine A1 receptor it was more than 500 nM; on adenosine A2B receptor, 10 to 50 nM. Further, at adenosine A2B receptor, the Ratio came out at 30.97. The intrinsic metabolic clearance (hepatocyte CLint) was 61.4 µL/min/1e6 cells in series [1] and 41.3 µL/min/1e6 cells in series [2]. In addition, the inhibition at 10 µM at CYP3A4 was determined as 53.8%.

Turning to `O=C(c1nc(NCc2cncc(F)c2)nc2ccsc12)N1CC[C@H](F)C1` [Example Z99, (S)-(2-(((5-Fluoropyridin-3-yl)methyl)amino)thieno[3,2-d]pyrimidin-4-yl)(3-fluoropyrrolidin-1-yl)methanone], the half-inhibitory concentration (IC50) at adenosine A2A receptor is more than 500 nM; against adenosine A3 receptor it was more than 500 nM; on adenosine A1 receptor it was more than 500 nM; on adenosine A2B receptor, 10 to 50 nM. The Ratio at adenosine A2B receptor is 37.02. For the same molecule, the values for the intrinsic metabolic clearance (hepatocyte CLint) in series [1] and in series [2] were 65.3 µL/min/1e6 cells and 21.1 µL/min/1e6 cells, respectively. On CYP3A4, the inhibition at 10 µM amounted to 48.9%.

As for `C[C@H](Nc1nc(C(=O)N2CC(O)C2)c2sccc2n1)c1ccccn1` [Example Z100, (S)-(3-Hydroxyazetidin-1-yl)(2-((1-(pyridin-2-yl)ethyl)amino)thieno[3,2-d]pyrimidin-4-yl)methanone], the IC50 at adenosine A2A receptor is 100 to 500 nM; against adenosine A3 receptor it was more than 500 nM; at adenosine A1 receptor it was more than 500 nM; at adenosine A2B receptor, 10 to 50 nM. For the same molecule, on adenosine A2B receptor, the Ratio was found to be 11.09. Besides, the results for the hepatocyte CLint in series [1] and in series [2] were 22.2 µL/min/1e6 cells and 1.89 µL/min/1e6 cells, respectively. The inhibition at 10 µM at CYP3A4 worked out at 7.65%.

Take `C[C@H](Nc1nc(C(=O)N2CCOC2)c2sccc2n1)c1ccccn1` [Example Z105, (S)-Oxazolidin-3-yl(2-((1-(pyridin-2-yl)ethyl)amino)thieno[3,2-d]pyrimidin-4-yl)methanone]: the half-maximal inhibitory concentration (IC50) at adenosine A2A receptor is 100 to 500 nM; on adenosine A3 receptor, more than 500 nM; against adenosine A1 receptor, more than 500 nM; at adenosine A2B receptor, less than 10 nM. Further, the Ratio on adenosine A2B receptor is listed as 19.04. The intrinsic metabolic clearance (hepatocyte CLint) in series [1] came to 27.7 µL/min/1e6 cells; in series [2], 58.9 µL/min/1e6 cells. Further, the inhibition at 10 µM on CYP3A4 worked out at 1.91%.

`COC1CN(C(=O)c2nc(N[C@@H](C)c3ccccn3)nc3ccsc23)C1` [Example Z108, (S)-(3-Methoxyazetidin-1-yl)(2-((1-(pyridin-2-yl)ethyl)amino)thieno[3,2-d]pyrimidin-4-yl)methanone]: the figures for the 50% inhibitory concentration (IC50) against adenosine A3 receptor, on adenosine A1 receptor and on adenosine A2B receptor were more than 500 nM, more than 500 nM and 10 to 50 nM, respectively. For the same molecule, the Ratio at adenosine A2B receptor turned out to be 10.93. Moreover, the hepatocyte CLint was found to be 23.4 µL/min/1e6 cells in series [1] and 5.66 µL/min/1e6 cells in series [2]. At CYP3A4, the inhibition at 10 µM was 31%.

Regarding `O=C(c1nc(NCc2cncc(F)c2)nc2ccsc12)N1CC(O)C1` [Example Z109, (2-(((5-Fluoropyridin-3-yl)methyl)amino)thieno[3,2-d]pyrimidin-4-yl)(3-hydroxyazetidin-1-yl)methanone], the IC50 on adenosine A2A receptor was more than 500 nM; on adenosine A3 receptor, more than 500 nM; against adenosine A1 receptor it was more than 500 nM; at adenosine A2B receptor, less than 10 nM. On adenosine A2B receptor, the Ratio amounted to 68.08. Moreover, the values for the intrinsic metabolic clearance (hepatocyte CLint) in series [1] and in series [2] were 19.9 µL/min/1e6 cells and 4.11 µL/min/1e6 cells, respectively. Moreover, the inhibition at 10 µM at CYP3A4 is 28.4%.

Take `CCNC(=O)c1nc(N[C@@H](C)c2ccccn2)nc2ccsc12` [Example Z111, (S)—N-Ethyl-2-((1-(pyridin-2-yl)ethyl)amino)thieno[3,2-d]pyrimidine-4-carboxamide]: the 50% inhibitory concentration (IC50) on adenosine A2A receptor was 50 to 100 nM; on adenosine A3 receptor it was more than 500 nM; against adenosine A1 receptor, more than 500 nM; at adenosine A2B receptor it was less than 10 nM. For the same molecule, the Ratio on adenosine A2B receptor was 15.70. Besides, the hepatocyte CLint was 45.4 µL/min/1e6 cells in series [1] and 8.64 µL/min/1e6 cells in series [2]. Further, the inhibition at 10 µM on CYP3A4 was 19.9%.

In the case of `COC1CN(C(=O)c2nc(NCc3cncc(F)c3)nc3ccsc23)C1` [Example Z115, (2-(((5-Fluoropyridin-3-yl)methyl)amino)thieno[3,2-d]pyrimidin-4-yl)(3-methoxyazetidin-1-yl)methanone], the 50% inhibitory concentration (IC50) at adenosine A2A receptor is 100 to 500 nM; against adenosine A3 receptor it was more than 500 nM; at adenosine A1 receptor it was more than 500 nM; on adenosine A2B receptor, less than 10 nM. The Ratio on adenosine A2B receptor was found to be 71.92. Further, the hepatocyte CLint in series [1] worked out at 51.7 µL/min/1e6 cells; in series [2] it was 13.9 µL/min/1e6 cells. The inhibition at 10 µM on CYP3A4 was 75%.

Turning to `O=C(c1nc(NCc2cccc(Cl)c2)nc2ccsc12)N1CCC1` [Example Z121, Azetidin-1-yl(2-((3-chlorobenzyl)amino)thieno[3,2-d]pyrimidin-4-yl)methanone], the IC50 on adenosine A2A receptor fell in the range of 100 to 500 nM; on adenosine A2B receptor, 10 to 50 nM. Also, the intrinsic metabolic clearance (hepatocyte CLint) is 249 µL/min/1e6 cells in series [1] and 85.1 µL/min/1e6 cells in series [2]. The inhibition at 10 µM on CYP3A4 was 48.6%.

For the molecule `O=C(c1nc(NCc2cccc(Cl)c2)nc2ccsc12)N1CC(O)C1` [Example Z122, (2-((3-Chlorobenzyl)amino)thieno[3,2-d]pyrimidin-4-yl)(3-hydroxyazetidin-1-yl)methanone], the half-maximal inhibitory concentration (IC50) on adenosine A2A receptor was in the range of 100 to 500 nM; on adenosine A2B receptor, 10 to 50 nM. In addition, the figures for the hepatocyte CLint in series [1] and in series [2] were 112 µL/min/1e6 cells and 68.4 µL/min/1e6 cells, respectively. The inhibition at 10 µM at CYP3A4 was 22.9%.

As to `O=C(NCCO)c1nc(NCc2cncc(F)c2)nc2ccsc12` [Example Z123, 2-(((5-Fluoropyridin-3-yl)methyl)amino)-N-(2-hydroxyethyl)thieno[3,2-d]pyrimidine-4-carboxamide], the IC50 at adenosine A2A receptor was more than 500 nM; against adenosine A3 receptor, more than 500 nM; at adenosine A1 receptor it was more than 500 nM; on adenosine A2B receptor it was 10 to 50 nM. Moreover, the Ratio at adenosine A2B receptor is on record as 42.97. The intrinsic clearance (hepatocyte CLint) was 22 µL/min/1e6 cells in series [1] and 5.54 µL/min/1e6 cells in series [2]. Also, the inhibition at 10 µM at CYP3A4 is 76.5%.
